In experiment [1] the test system is A-431 plasma membrane extracts (EGF-mediated protein phosphorylation). The experiment is described as follows: Protein phosphorylation in solubilized A-431 plasma membrane extracts, with or without EGF. The class given is biochemical, human. The protocol: The capacity of certain peptide halomethyl ketones to inhibit protein phosphorylation is illustrated by Examples 1-8, below, in which solubilized plasma membranes prepared from A-431 human epidermoid carcinoma cells were incubated with [γ-^32 P] ATP in the presence of EGF.
A-431 human epidermoid carcinoma cells were grown in Dulbecco's modified Eagle's medium containing 5% fetal calf serum. Plasma membranes were isolated by a method substantially similar to that described by Thom et al., Biochem J. 168:187 (1977), and kept at -70°. Solubilization of plasma membranes was performed substantially as described by Cohen et al., J. Biol. Chem. 255:4834 (1980). In this procedure, 7.5 mg/mL protein was solubilized with 5% Triton X-100 (octylphenol), 10% glycerol, and 20 mM Hepes buffer (N-2-hydroxyethylpiperazine-N^1 -2-ethanesulfonic acid), pH 7.4. This mixture was incubated for 20 minutes at about 23°, followed by centrifugation at 100,000 xg for 60 minutes.
(§1) Protein phosphorylation assays were conducted substantially as described by Carpenter et al., J. Biol. Chem. 254:4884 (1979). Each assay mixture contained, in a final volume of 70 μL: 20 mM Hepes, pH 7.4, 0.01% bovine serum albumin (BSA), 15-150 μg protein in Triton extract, 100 ng EGF, 1 mM MnCl2 and 10-20 μM [γ-^32 P] ATP (2-4 μCi). Peptide halomethyl ketones were added as solutions in ethanol; an equivalent volume of ethanol was added to controls. Assay mixtures were incubated at about 23° for ten minutes, with or without added EGF. Mixtures were then held at 0° for ten minutes before initiation of phosphorylation by addition of 15 μM γ-^32 P) ATP (2 μCi). Reactions were terminated after 3 minutes at 0° by applying an aliquot of the assay mixture to a Whatman 3MM filter paper (2×2 cm), which was then suspended in ice-cold 10% trichloroacetic acid containing 10 mM pyrophosphate. This suspension was gently shaken for a period of 1 hour, during which the trichloroacetic acid/pyrophosphate mixture was changed three times. Finally, the filter papers were dried and radioactivity measured by scintillation counting.

A further experiment relates to lymphoma cell line YAC-1. In words: Tumor cell line growth inhibition, YAC-1. The class given is cell-based. The protocol:
(§2) In this series of experiments, the tumor cell growth inhibitory capacity of various peptide halomethyl ketones was tested against lymphoma cell lines YAC-1 and MOLT-4, and against an erythroleukemia cell line, K-562. The lymphoma cell line YAC-1 is described by Kiessling, et al., Eur. J. Immunol. 5:112 (1975), and MOLT-4 is described by Minowada, et al., J. Natl. Cancer Inst. 49:891 (1972) and Nilsson, et al., Int. J. Cancer 15:321 (1975). The erythroleukemia cell line K-562 is described by Lozzio, et al., Leuk. Res. 3:363 (1979). In these experiments, cells were grown on standard media as 10 mL suspension cultures. Initial cell density was 10^5 cells/mL. At day 0, test compounds were introduced in ethanol; control cultures received an equal volume of ethanol. Cells were counted at the times indicated.

In experiment [2] the test system is lymphoma cell line MOLT-4. The experiment is described as follows: Tumor cell line growth inhibition, MOLT-4. It counts as cell-based. How it is done:
as §2

Experiment [3] concerns erythroleukemia cell line K-562. The experiment is described as follows: Tumor cell line growth inhibition, K-562. The class given is cell-based. The protocol:
as §2

A further experiment concerns the target T1, p130^fps (UniProt P00530+P03323).
T1 construct: anti-gag serum and Staphylococcus protein A suspension (for FSV-transformed cells); viral gag-derived N-terminal portion (natural gag-fps fusion); expressed in transfected cells; immune complex with anti-gag serum and Staphylococcus protein A
In words: Casein phosphorylation by p130fps immunoprecipitates. Particulars: casein-phosphorylating activity of p130fps; concentration not given. It counts as biochemical, Fujinami sarcoma virus (FSV). How it is done:
In a related experiment, the capacity of Boc-LeuCH2 Br to inhibit phosphorylation of casein by p130^fps was determined. These tests were conducted substantially as described above, except 1 mg/mL casein was added to assay mixtures as a substrate, and reactions were terminated by addition of 2.5 mM unlabeled ATP and immediate cooling to 0°. Phosphorylated casein was separated from immunoprecipitate suspensions by centrifugation at 3,000 xg for 3 minutes. The resulting pellets were resuspended in 70 μL of 10 mM Hepes, pH 7.5, and 20 μL aliquots were pipetted onto filter paper squares as previously described. […]

For a further experiment, the target named is T2, A-431 cell EGF receptor (Homo sapiens, UniProt P00533).
T2 construct: intact A-431 cell membranes were employed, rather than solubilized extracts; endogenous in cells; host or cells: A-431 human epidermoid carcinoma cells (plasma membranes)
T2 sequence (P00533 25-1210): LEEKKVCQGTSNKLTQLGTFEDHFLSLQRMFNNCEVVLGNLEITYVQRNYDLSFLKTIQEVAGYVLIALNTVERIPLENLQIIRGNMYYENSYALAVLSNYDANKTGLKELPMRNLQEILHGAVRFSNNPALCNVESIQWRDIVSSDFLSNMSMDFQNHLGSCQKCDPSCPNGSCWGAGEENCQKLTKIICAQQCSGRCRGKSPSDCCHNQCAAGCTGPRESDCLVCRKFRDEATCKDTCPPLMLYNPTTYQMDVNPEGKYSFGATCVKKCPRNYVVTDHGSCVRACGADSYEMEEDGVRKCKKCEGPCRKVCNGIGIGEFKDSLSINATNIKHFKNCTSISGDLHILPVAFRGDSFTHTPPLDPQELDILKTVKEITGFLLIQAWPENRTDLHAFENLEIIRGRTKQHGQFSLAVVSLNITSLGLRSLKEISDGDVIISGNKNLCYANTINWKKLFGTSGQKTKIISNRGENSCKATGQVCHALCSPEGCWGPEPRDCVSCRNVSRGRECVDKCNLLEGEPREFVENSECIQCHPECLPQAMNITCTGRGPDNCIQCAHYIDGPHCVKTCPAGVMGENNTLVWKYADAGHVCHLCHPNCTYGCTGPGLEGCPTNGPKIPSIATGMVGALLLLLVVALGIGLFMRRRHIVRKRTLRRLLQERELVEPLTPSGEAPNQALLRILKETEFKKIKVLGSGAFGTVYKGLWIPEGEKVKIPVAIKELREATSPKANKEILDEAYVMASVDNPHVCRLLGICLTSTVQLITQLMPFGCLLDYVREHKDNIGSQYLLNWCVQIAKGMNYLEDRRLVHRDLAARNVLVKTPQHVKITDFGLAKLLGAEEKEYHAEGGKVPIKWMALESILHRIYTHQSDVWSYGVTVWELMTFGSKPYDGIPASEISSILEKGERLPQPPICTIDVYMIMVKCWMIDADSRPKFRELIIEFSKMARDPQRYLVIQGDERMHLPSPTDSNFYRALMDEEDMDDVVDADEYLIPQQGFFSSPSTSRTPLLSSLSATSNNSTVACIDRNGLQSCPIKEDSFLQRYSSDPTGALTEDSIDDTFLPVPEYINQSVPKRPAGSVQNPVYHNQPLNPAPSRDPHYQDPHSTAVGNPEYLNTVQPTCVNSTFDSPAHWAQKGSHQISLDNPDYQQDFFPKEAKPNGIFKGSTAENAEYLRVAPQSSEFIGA
In words: Protein phosphorylation of A-431 cell membrane EGF receptors (intact membranes, EGF present). It counts as biochemical. Particulars: 600 nmoles/mg protein, intact A-431 membranes. How it is done:
as §1
Assays were conducted substantially as described above, except intact A-431 cell membranes were employed, rather than solubilized extracts, and assay mixtures contained 1 mM ouabain. In these Examples, reactions were permitted to proceed for 6 minutes. This technique is substantially similar to that disclosed by Navarro et al., Biochemistry, 21:6138 (1982).

Setting [4] is: 400 nmol/mg protein, control 20.2.
[5] abbreviates: 400 nmol/mg protein, control 7.3.

Square brackets hold non-standard residues; d marks the D form. Peptide text beside a SMILES is read from it. * marks the point of attachment. ξ: configuration not given here. Cbz = O=C(OCc1ccccc1)*; ξL = CC(C)CC(N)C(=O)O; CH2Cl = ClC*

Consider 15 compounds from US4582821A, “Inhibition of cyclic nucleotide independent protein kinases” (E. I. Du Pont de Nemours and Company, priority 1983, dated 1986).

One may read the % inhibition as the drop in the measured response relative to a control, in per cent. Low values mean little suppression, high ones strong suppression.

With `CC(=O)N[C@@H](Cc1ccccc1)C(=O)NCC(=O)N[C@@H](C)C(=O)N[C@@H](CC(C)C)C(=O)CCl` [Ac-Phe-Gly-Ala-LeuCH2 Cl] (Ac-FGAL-CH2Cl), in experiment [1] (400 nmol/mg protein), the “% inhibition, EGF Added” value is listed as 59%. For the same compound, the “EGF Added (pmol 32P incorporated/min/mg protein)” value in experiment [1] (setting [4]) was 8.3 pmol^32 P incorporated/min/mg. Moreover, the “% inhibition, No EGF Added” value in experiment [1] (400 nmol/mg protein) was determined as 29%. The “No EGF Added (pmol 32P incorporated/min/mg protein)” value in experiment [1] (setting [5]) is reported as 5.2 pmol^32 P incorporated/min/mg. In addition, the “% Growth Relative to Control Cultures” value is given as 80% in the experiment on lymphoma cell line YAC-1 (0.4 μg/mL, day 1); 91% in the experiment on lymphoma cell line YAC-1 (0.4 μg/mL, day 2); 78% in the experiment on lymphoma cell line YAC-1 (10. μg/mL, day 1); 59% with lymphoma cell line YAC-1 (10. μg/mL, day 2); 43% in the experiment with lymphoma cell line YAC-1 (10. μg/mL, day 3); 24% in the experiment with lymphoma cell line YAC-1 (10. μg/mL, day 4). Besides, the “% Growth Relative to Control Cultures” value is 50% in experiment [2] (0.4 μg/mL, day 1); 72% in experiment [2] (0.4 μg/mL, day 4); 66% in experiment [2] (0.4 μg/mL, day 7); 87% in experiment [2] (2.0 μg/mL, day 4); 88% in experiment [2] (10. μg/mL, day 7); 81% in experiment [3] (0.4 μg/mL, day 1). The “% Growth Relative to Control Cultures” value in experiment [3] (0.4 μg/mL, day 3) is on record as 85%; in experiment [3] (0.4 μg/mL, day 7) it was 84%; in experiment [3] (2.0 μg/mL, day 4), 79%; in experiment [3] (10. μg/mL, day 2), 77%; in experiment [3] (10. μg/mL, day 3), 87%; in experiment [3] (10. μg/mL, day 7) it was 47%.

`CC(C)[C@H](NC(=O)OC(C)(C)C)C(=O)CCl` [Boc-ValCH2 Cl]: the “% inhibition, EGF Added” value in experiment [1] (477 nmol/mg protein) is 25%. Further, the “EGF Added (pmol 32P incorporated/min/mg protein)” value in experiment [1] (477 nmol/mg protein, control 96.2) was 72.2 pmol^32 P incorporated/min/mg. Also, the “No EGF Added (pmol 32P incorporated/min/mg protein)” value in experiment [1] (477 nmol/mg protein, control 21.6) is given as 20.3 pmol^32 P incorporated/min/mg.

On to `CC(C)CC(NC(=O)[C@H](C)NC(=O)[C@H](CC(C)C)NC(=O)[C@H](Cc1ccccc1)NC(=O)OCc1ccccc1)C(=O)CCl` (stereo partly drawn) [Z--Phe-Leu-Ala-LeuCH2 Cl, Z-Phe-Leu-Ala-LeuCH2 Cl] (Cbz-FLA[ξL]-CH2Cl), for which the “Percent Inhibition” value at p130^fps was 36%.

`CC(C)C[C@H](NC(=O)[C@H](Cc1ccccc1)NC(=O)CNC(=O)[C@H](Cc1ccccc1)NC(=O)OCc1ccccc1)C(=O)CCl` [Z--Phe-Gly-Phe-LeuCH2 Cl, Z-Phe-Gly-Phe-LeuCH2 Cl] (Cbz-FGFL-CH2Cl): the “Percent Inhibition” value on p130^fps was 34%.

As for `C[C@H](NC(=O)CNC(=O)[C@H](Cc1ccccc1)NC(=O)OCc1ccccc1)C(=O)N[C@@H](Cc1ccc(O)cc1)C(=O)CCl` [Z--Phe-Gly-Ala-TyrCH2 Cl, Z-Phe-Gly-Ala-TyrCH2 Cl] (Cbz-FGAY-CH2Cl), the “% inhibition” value on A-431 cell EGF receptor was determined as 67%.

On to `CC(C)C[C@H](NC(=O)[C@@H]1CCCN1C(=O)CNC(=O)[C@H](Cc1ccccc1)NC(=O)OCc1ccccc1)C(=O)CCl` [Z--Phe-Gly-Pro-LeuCH2 Cl] (Cbz-FGPL-CH2Cl), for which the “Percent Inhibition” value on p130^fps is on record as 7%.

Regarding `CC(=O)NC(Cc1ccccc1)C(=O)NC(CCC(=O)O)C(=O)NC(C)C(=O)NC(CC(C)C)C(=O)CCl` (stereo not drawn) [Ac-Phe-Glu-Ala-LeuCH2 Cl] (Ac-FEAL-CH2Cl; configuration not given here), at p130^fps, the “Percent Inhibition” value is -1%.

For the compound `CC(C)CC(NC(=O)C(CCCCN)NC(=O)CNC(=O)C(Cc1ccccc1)NC(=O)OCc1ccccc1)C(=O)CCl` (stereo not drawn) [Z--Phe-Gly-Lys-LeuCH2 Cl, Z-Phe-Gly-Lys-LeuCH2 Cl] (Cbz-FGKL-CH2Cl; configuration not given here), on p130^fps, the “Percent Inhibition” value was 48%.

Regarding `CC(=O)NC(Cc1ccccc1)C(=O)NCC(=O)NC(CCC(=O)O)C(=O)NC(CC(C)C)C(=O)CCl` (stereo not drawn) [Ac-Phe-Gly-Glu-LeuCH2 Cl] (Ac-FGEL-CH2Cl; configuration not given here), at p130^fps, the “Percent Inhibition” value is 0%.

In the case of `C[C@H](NC(=O)OCc1ccccc1)C(=O)CCl` [Z-AlaCH2 Cl], in experiment [1] (400 nmol/mg protein), the “% inhibition, EGF Added” value turned out to be 71% and the “% inhibition, No EGF Added” value is given as 44%. In experiment [1] (setting [4]), the “EGF Added (pmol 32P incorporated/min/mg protein)” value was 5.9 pmol^32 P incorporated/min/mg. Also, the “No EGF Added (pmol 32P incorporated/min/mg protein)” value in experiment [1] (setting [5]) is listed as 4.1 pmol^32 P incorporated/min/mg.

Regarding `CC(C)C[C@H](NC(=O)[C@H](C)NC(=O)[C@H](Cc1ccccc1)NC(=O)[C@H](Cc1ccccc1)NC(=O)OCc1ccccc1)C(=O)CCl` [Z--Phe-Phe-Ala-LeuCH2 Cl] (Cbz-FFAL-CH2Cl), the “Percent Inhibition” value on p130^fps came to 11%.

In the case of `CC(C)CC(NC(=O)C(C)NC(=O)C(CCCCN)NC(=O)C(Cc1ccccc1)NC(=O)OCc1ccccc1)C(=O)CCl` (stereo not drawn) [Z--Phe-Lys-Ala-LeuCH2 Cl, Z-Phe-Lys-Ala-LeuCH2 Cl] (Cbz-FKAL-CH2Cl; configuration not given here), the “Percent Inhibition” value on p130^fps worked out at 11%.

With `CC(C)C[C@H](NC(=O)[C@H](C)NC(=O)CNC(=O)[C@H](Cc1ccccc1)NC(=O)OCc1ccccc1)C(=O)CCl` [Z--Phe-Gly-Ala-LeuCH2 Cl, Z-Phe-Gly-Ala-LeuCH2 Cl] (Cbz-FGAL-CH2Cl), on p130^fps, the “Percent Inhibition” value was found to be 27%.

Consider `CC(C)CC(NC(=O)C(C)NC(=O)C1CCCN1C(=O)C(Cc1ccccc1)NC(=O)OCc1ccccc1)C(=O)CCl` (stereo not drawn) [Z--Phe-Pro-Ala-LeuCH2 Cl] (Cbz-FPAL-CH2Cl; configuration not given here), for which the “Percent Inhibition” value on p130^fps was determined as 16%.

In the case of `CC(C)CC(NC(=O)C(CC(C)C)NC(=O)CNC(=O)C(Cc1ccccc1)NC(=O)OCc1ccccc1)C(=O)CCl` (stereo not drawn) [Z--Phe-Gly-Leu-LeuCH2 Cl, Z-Phe-Gly-Leu-LeuCH2 Cl] (Cbz-FGLL-CH2Cl; configuration not given here), the “Percent Inhibition” value on p130^fps came to 44%.
